Measured values reported in PubChem BioAssay (NCI).
Several values for one entry are separate records, joined by “and”; a condition that tells them apart may be missing. Equal values may be shown once.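 Interpolation was linear, between the two tested concentrations surrounding the appropriate level; five concentrations were tested over 48 hours in 96-well plates. At the GI50, growth is halved. TGI: total growth inhibition.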

Experiments:
Assay in all cases: NCI tumour cell line growth inhibition, 48 h
[1] = test system: ACHN renal
[2] = test system: T-47D breast
[3] = test system: COLO 205 colon
[4] = test system: NCI-H23 lung
[5] = test system: SK-MEL-5 melanoma
[6] = test system: MOLT-4 leukemia
[7] = test system: UACC-62 melanoma
[8] = test system: HL-60(TB) leukemia
[9] = test system: KM12 colon
[10] = test system: NCI-H522 lung

Row | SMILES | GI50 [1] | TGI [1] | GI50 [2] | TGI [2] | GI50 [3] | TGI [3] | GI50 [4] | TGI [4] | GI50 [5] | TGI [5] | GI50 [6] | TGI [6] | GI50 [7] [µM] | TGI [7] [µM] | GI50 [8] | TGI [8] | GI50 [9] | TGI [9] | GI50 [10] | TGI [10]
1 | COc1ccc(C2C=C(c3ccc(Cl)cc3)N=C3SC=C(C)N32)c(Br)c1 (stereo unspecified) | 3.64 µM | 17.4 µM | 3.45 µM | 21.5 µM | 3.54 µM | 10.3 µM | 4.43 µM | 28.4 µM | 2.8 µM | 11.2 µM | 4.12 µM | > 100 µM | 3.8 | 15.7 | 3.85 µM | 51.5 µM | 2.26 µM | 5.77 µM | 2.96 µM | 9.29 µM
2 | Cc1c(C(N)=O)sc2c1c(=O)n(Cc1ccccc1)c1nnc(-c3ccc(Br)cc3)n21 | 1.46 µM | 12.3 µM | 3.38 µM | 18.9 µM | 3.12 µM | 15 µM | 3.11 µM | 15.2 µM | 1.47 µM | 4.89 µM | 1.64 µM | 17.3 µM | 1.78 | 8.46 | 4.42 µM | 38.8 µM | 3.31 µM | 17.9 µM | 3.13 µM | 12.9 µM
3 | O=C(Nc1ccccc1O)c1ccc(NS(=O)(=O)c2cccc3cccnc23)cc1 | 1.21 µM | 5.78 µM | 0.559 µM | 4.16 µM | 1.06 µM | 4.01 µM | 2.02 µM | 13.7 µM | 0.838 µM | 3.42 µM | 1.21 µM | > 25 µM | 0.539 | 3.49 | 1.03 µM | 12.9 µM | 2.73 µM | 7.29 µM | 0.67 µM | 3.47 µM
4 | O=C1c2ccccc2C(=O)c2sc(Nc3ccccc3Cl)nc21 | – | 14.9 µM | – | 34.5 µM | – | 29 µM | – | 17.5 µM | – | 16.4 µM | – | 11.1 µM | – | 17.3 | – | 4.18 µM | – | 29.6 µM | – | 9.61 µM
5 | NNC(=O)c1ccc(OCc2nc3ccccc3[nH]2)cc1 | – | > 100 µM | – | > 100 µM | – | > 100 µM | – | > 100 µM | – | > 100 µM | – | > 100 µM | – | > 100 | – | > 100 µM | – | > 100 µM | – | > 100 µM
6 | COc1cc(NCCN=C(N)NC(N)=NC(C)C)c2ncccc2c1 | > 100 µM | > 100 µM | 1.44 µM | 5.12 µM | 1.7 µM | 7.95 µM | 3.25 µM | 15.7 µM | 3.4 µM | 11.7 µM | 25 µM | > 100 µM | 18.9 | 94.6 | 14.3 µM | 39.6 µM | 3.53 µM | > 41.2 µM | 3.61 µM | 40.7 µM
7 | C=C(C)C(=O)O[C@@H]1C/C(C)=C\[C@H](OC(C)=O)C[C@](C)(O)/C=C2/OC(=O)C(COC(C)=O)=C21 | – | 1.87 µM | – | 22.1 µM | – | 2.37 µM | – | 5.21 µM | – | 8.4 µM | – | 2.32 µM | – | 2.1 | – | 0.0496 µM | – | 23.5 µM | – | 0.539 µM
8 | CN1CCN(CCOc2cc(OC3CCOCC3)c3c(Nc4c(Cl)ccc5c4OCO5)ncnc3c2)CC1 | 0.348 µM and 0.395 µM | 14 µM and > 10 µM | 1.23 µM and 0.286 µM | 22.3 µM and > 10 µM | 9.81 µM and 7.76 µM | 24 µM and > 10 µM | 12.2 µM and > 10 µM | 57.1 µM and > 10 µM | 11.4 µM and > 10 µM | 23.6 µM and > 10 µM | 14.6 µM and > 10 µM | 49.2 µM and > 10 µM | 14.8 | 28.6 | 18.7 µM and > 10 µM | 37.8 µM and > 10 µM | 1.32 µM and 2.23 µM | 15.1 µM and > 10 µM | 0.165 µM and 0.346 µM | 2.5 µM and > 10 µM
9 | COc1ccc(Cn2cc3c(c2-c2ccccc2)CCc2cnoc2-3)cc1N | 1.11 µM | > 100 µM | 3.86 µM | > 100 µM | 1.32 µM | 4.08 µM | 0.441 µM | > 100 µM | 0.0617 µM | 2.58 µM | 0.398 µM | > 96.1 µM | 0.182 | > 100 | 0.137 µM | 0.617 µM | 0.0788 µM | 2.58 µM | 0.027 µM | 0.339 µM
10 | Nc1nc(N)c2cc(Sc3cccc(C(F)(F)F)c3)ccc2n1 | – | 14.7 µM | 1.71 µM | 3.6 µM | – | 3.02 µM | – | 16.4 µM | – | 5.86 µM | – | 6.08 µM | – | 5.49 | – | 3.24 µM | – | 11.3 µM | – | 8.34 µM
11 | Cc1ccc(-c2nc(-c3cn(C)c4ncccc34)cs2)cc1 | 7.65 µM | 29.2 µM | 2.53 µM | 18.6 µM | 2.82 µM | 10.5 µM | 7.12 µM | 31.3 µM | 3.7 µM | 14.6 µM | 4.24 µM | 30.3 µM | 3.17 | 16.3 | 2.54 µM | 26.2 µM | 1.2 µM | 14 µM | 2.14 µM | 16.7 µM
12 | C[C@@H]1COCCN1c1cc(C2([S@@](C)(=N)=O)CC2)nc(-c2ccnc3[nH]ccc23)n1 | 2.17 µM | > 51.3 µM | 3.43 µM | 33.4 µM | 7.69 µM | > 83.1 µM | 3.3 µM | 45.2 µM | 6.87 µM | 26.4 µM | 3.99 µM | 62.6 µM | 4.29 | 36.6 | 3.87 µM | 41.5 µM | 5.8 µM | > 100 µM | 8.05 µM | > 100 µM
13 | NC(=Nc1ccc(N)cc1)C(N)=Nc1ccc(N)cc1 | 37.5 µM | > 100 µM | > 100 µM | > 100 µM | 43.5 µM | > 100 µM | > 100 µM | > 100 µM | > 100 µM | > 100 µM | 55.5 µM | > 100 µM | > 100 | > 100 | 57.1 µM | > 100 µM | 61 µM | > 100 µM | > 100 µM | > 100 µM
14 | Cc1cnc(Nc2ccc(N3CCN(C)CC3)cc2)nc1Nc1ccc(Cl)c(NS(=O)(=O)C(C)(C)C)c1 | 0.0902 µM | 2.2 µM | 0.349 µM | 15.5 µM | 0.094 µM | 0.543 µM | 0.379 µM | 6.55 µM | 0.312 µM | 1.51 µM | 0.419 µM | 11.6 µM | 0.0808 | 1.68 | 0.103 µM | 1.02 µM | 0.0943 µM | 5.39 µM | 0.073 µM | 1.6 µM
